{"source": "patent US12285524B2", "about": "“Sustained-release pharmaceutical compositions comprising an antipsychotic drug and uses thereof” (priority 2018, dated 2025)", "assay": "in vivo", "conditions": "female, Sprague-Dawley, rat, sc, 10 mg/kg", "experimental": "The rats were housed in a holding room which operated on a 12-hr light/12-hr dark circadian cycle with free access to water and food.\nPlasma samples were obtained by centrifugation, kept frozen at −80° C. and analyzed using a noncompartmental analysis model in PKSolver (Comput Methods Programs Biomed. 2010; 99(3):306-314)."}
{"smiles": "Cc1nc2n(c(=O)c1CCN1CCC(c3noc4cc(F)ccc34)CC1)CCCC2", "note": "[Risperidone, risperidone]", "values": [{"measurement": "AUC(0-inf)", "value": 13300, "unit": "ng·h/mL"}, {"measurement": "AUC(0-t)", "value": 13200, "unit": "ng·h/mL"}, {"measurement": "Cmax", "value": 4510, "unit": "ng/mL"}, {"measurement": "drug released, indicated by AUC0-t", "setting": "8 h", "value": 100, "unit": "%"}]}
